Results reported in PubChem BioAssay AID248 (DTP/NCI, 2004).
Inconclusive results and toxic doses are left out. Rule as the data show it: active = T/C of 150% or more; inactive = T/C below 125%.

Tested on: L1210 leukemia ip in BDF1 mice, survival T/C
Test: NCI In Vivo Anticancer Drug Screen. Data for tumor model L1210 Leukemia (intraperitoneal) in B6D2F1 (BDF1) mice
Settings: endpoint: mean survival time, higher = longer survival
In short: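 Transplantable tumor model; survival measured in treated vs vehicle control mice. Value = treated/control.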

[1] = dose: 100.0 mg/kg/injection, schedule: Q04DX002 (ip), vehicle: Klucel (hydroxypropylcellulose) (HPC)
[2] = dose: 100.0 mg/kg/injection, schedule: Q04DX003 (ip), vehicle: saline with Tween-80
[3] = dose: 200.0 mg/kg/injection, schedule: Q04DX003 (ip), vehicle: saline with Tween-80
[4] = dose: 400.0 mg/kg/injection, schedule: Q04DX003 (ip), vehicle: saline with Tween-80
[5] = dose: 50.0 mg/kg/injection, schedule: Q01DX009 (ip), vehicle: Klucel (hydroxypropylcellulose) (HPC)
[6] = dose: 100.0 mg/kg/injection, schedule: Q01DX001 (ip), vehicle: carboxymethylcellulose (CMC)
[7] = dose: 200.0 mg/kg/injection, schedule: Q01DX001 (ip), vehicle: carboxymethylcellulose (CMC)
[8] = dose: 400.0 mg/kg/injection, schedule: Q01DX001 (ip), vehicle: carboxymethylcellulose (CMC)
[9] = dose: 100.0 mg/kg/injection, schedule: Q01DX009 (ip), vehicle: saline with Tween-80
[10] = dose: 400.0 mg/kg/injection, schedule: Q01DX009 (ip), vehicle: saline with Tween-80
[11] = dose: 100.0 mg/kg/injection, schedule: Q04DX003 (ip), vehicle: Klucel (hydroxypropylcellulose) (HPC)
[12] = dose: 200.0 mg/kg/injection, schedule: Q04DX003 (ip), vehicle: Klucel (hydroxypropylcellulose) (HPC)
[13] = dose: 400.0 mg/kg/injection, schedule: Q04DX003 (ip), vehicle: Klucel (hydroxypropylcellulose) (HPC)
[14] = dose: 100.0 mg/kg/injection, schedule: Q01DX001 (ip), vehicle: saline
[15] = dose: 200.0 mg/kg/injection, schedule: Q01DX001 (ip), vehicle: saline
[16] = dose: 400.0 mg/kg/injection, schedule: Q01DX001 (ip), vehicle: saline
[17] = dose: 200.0 mg/kg/injection, schedule: Q01DX009 (ip), vehicle: saline with Tween-80

Measured: T/C

CC(=O)O[C@@]1(C)[C@@H](C)C(=O)O[C@@H]2CCN3CC=C(COC(=O)[C@]1(C)O)[C@H]23
inactive: dose: 6.25 mg/kg/injection, schedule: Q01DX009 (ip), vehicle: other 97 % of control | dose: 12.5 mg/kg/injection, schedule: Q01DX009 (ip), vehicle: other 94 % of control | dose: 25.0 mg/kg/injection, schedule: Q01DX009 (ip), vehicle: other 120 % of control | dose: 25.0 mg/kg/injection, schedule: Q01DX009 (ip), vehicle: saline 114 % of control | dose: 50.0 mg/kg/injection, schedule: Q01DX009 (ip), vehicle: carboxymethylcellulose (CMC) 124 % of control | dose: 100.0 mg/kg/injection, schedule: Q01DX009 (ip), vehicle: carboxymethylcellulose (CMC) 118 % of control

COc1ccc(CCN)cc1F
inactive: [1] 98 % of control | dose: 200.0 mg/kg/injection, schedule: Q04DX002 (ip), vehicle: Klucel (hydroxypropylcellulose) (HPC) 102 % of control

Nc1[nH]c(=S)[nH]c(=O)c1NC(=O)C1CC1
inactive: dose: 100.0 mg/kg/injection, schedule: Q04DX003 (ip), vehicle: saline 96 % of control | dose: 200.0 mg/kg/injection, schedule: Q04DX003 (ip), vehicle: saline 105 % of control | dose: 400.0 mg/kg/injection, schedule: Q04DX003 (ip), vehicle: saline 102 % of control

COc1cc2c(cc1[N+](=O)[O-])OCO2
inactive: [2] 104 % of control | [3] 97 % of control | [4] 98 % of control

O=C1C2C(C(=O)N1c1cccc3ccccc13)C1(Cl)C(Cl)=C(Cl)C2(Cl)C1(Cl)Cl (stereo unspecified)
inactive: dose: 12.5 mg/kg/injection, schedule: Q01DX009 (ip), vehicle: Klucel (hydroxypropylcellulose) (HPC) 103 % of control | dose: 25.0 mg/kg/injection, schedule: Q01DX009 (ip), vehicle: Klucel (hydroxypropylcellulose) (HPC) 104 % of control | [5] 96 % of control

Nc1ccc2c(c1)/C(=N/O)c1cc(Cl)ccc1-2
inactive: [6] 109 % of control | [7] 103 % of control | [8] 100 % of control

COc1ccc(N2c3ccccc3-c3cc[nH]c(=O)c3[C@H]2O)cc1OC
inactive: dose: 12.5 mg/kg/injection, schedule: Q04DX003 (ip), vehicle: saline 93 % of control | dose: 25.0 mg/kg/injection, schedule: Q04DX003 (ip), vehicle: saline 101 % of control | dose: 50.0 mg/kg/injection, schedule: Q04DX003 (ip), vehicle: saline 91 % of control | dose: 75.0 mg/kg/injection, schedule: Q04DX003 (ip), vehicle: saline 99 % of control | dose: 115.0 mg/kg/injection, schedule: Q04DX003 (ip), vehicle: saline 105 % of control | dose: 170.0 mg/kg/injection, schedule: Q04DX003 (ip), vehicle: saline 94 % of control

O=c1cc(-c2ccccc2)[nH]c(=S)[nH]1
inactive: [9] 94 % of control | [2] 101 % of control | [3] 103 % of control | [10] 89 % of control | [4] 106 % of control

CNC1C(c2ccc(C)cc2)=NN(c2ccccc2)C1c1ccccc1 (stereo unspecified)
inactive: dose: 100.0 mg/kg/injection, schedule: Q01DX001 (ip), vehicle: saline sonified 95 % of control | dose: 200.0 mg/kg/injection, schedule: Q01DX001 (ip), vehicle: saline sonified 95 % of control | dose: 400.0 mg/kg/injection, schedule: Q01DX001 (ip), vehicle: saline sonified 89 % of control

CC(O)C(O)C(O)C(O)/C=N/O (stereo unspecified)
inactive: [11] 100 % of control | [12] 97 % of control | [13] 102 % of control

N/C(=N\[N+](=O)[O-])Nc1nc2ccccc2s1
inactive: [1] 113 % of control

CSc1nc(N)nc2c1ncn2C1OC(CO)CC1O (stereo unspecified)
inactive: [14] 107 % of control | [15] 104 % of control | [16] 115 % of control

Cc1cc(Cl)ccc1NS(=O)(=O)c1cccc([N+](=O)[O-])c1
inactive: [9] 90 % of control | [17] 90 % of control | [10] 87 % of control

O=c1[nH]c(=O)n(C2CCCO2)cc1I (stereo unspecified)
inactive: [6] 95 % of control | [7] 98 % of control | [8] 93 % of control

O=C(O)c1ccc(C(Cl)(Cl)Cl)cc1
inactive: dose: 50.0 mg/kg/injection, schedule: Q01DX009 (ip), vehicle: saline sonified 96 % of control | dose: 100.0 mg/kg/injection, schedule: Q01DX009 (ip), vehicle: saline sonified 115 % of control | [11] 102 % of control | dose: 200.0 mg/kg/injection, schedule: Q01DX009 (ip), vehicle: saline sonified 118 % of control | [12] 94 % of control

CCC1(CCC#N)CCC(N)=CC1=O (stereo unspecified)
inactive: [9] 97 % of control | [17] 106 % of control | [10] 97 % of control

Cc1[nH]c(=O)[nH]c(=O)c1/C=C/C(=O)O
inactive: [14] 97 % of control | dose: 100.0 mg/kg/injection, schedule: Q01DX009 (ip), vehicle: saline 108 % of control | [15] 100 % of control | dose: 200.0 mg/kg/injection, schedule: Q01DX009 (ip), vehicle: saline 102 % of control | [16] 97 % of control | dose: 400.0 mg/kg/injection, schedule: Q01DX009 (ip), vehicle: saline 106 % of control

COc1cccc(NC(=S)NCCO)c1
inactive: [11] 103 % of control | [12] 110 % of control | [13] 110 % of control

O=C1OCCO1
inactive: dose: 100.0 mg/kg/injection, schedule: Q04DX003 (ip), vehicle: saline sonified 95 % of control | dose: 200.0 mg/kg/injection, schedule: Q04DX003 (ip), vehicle: saline sonified 101 % of control | dose: 400.0 mg/kg/injection, schedule: Q04DX003 (ip), vehicle: saline sonified 101 % of control

CN=C(NCCCN1CCOCC1)c1ccc(NC(=O)c2ccc(C(=O)Nc3ccc(C(=NC)NCCCN4CCOCC4)cc3)cc2)cc1
inactive: dose: 12.5 mg/kg/injection, schedule: Q01DX Z (ip), vehicle: water 103 % of control | dose: 25.0 mg/kg/injection, schedule: Q01DX Z (ip), vehicle: water 113 % of control

COc1ccc(S(=O)(=O)NC(=O)NCCC=C(C)C)cc1
inactive: [5] 100 % of control | dose: 100.0 mg/kg/injection, schedule: Q01DX009 (ip), vehicle: Klucel (hydroxypropylcellulose) (HPC) 95 % of control | [11] 106 % of control | dose: 200.0 mg/kg/injection, schedule: Q01DX009 (ip), vehicle: Klucel (hydroxypropylcellulose) (HPC) 91 % of control | [12] 97 % of control | [13] 101 % of control

Nc1ccc2ncccc2c1[N+](=O)[O-]
inactive: dose: 100.0 mg/kg/injection, schedule: Q01DX001 (ip), vehicle: other 87 % of control | dose: 200.0 mg/kg/injection, schedule: Q01DX001 (ip), vehicle: other 93 % of control

CCOC(=O)c1cc(CC)sc1N
inactive: [9] 96 % of control | [11] 91 % of control | [17] 86 % of control | [12] 97 % of control | [10] 90 % of control | [13] 96 % of control

Cc1ccc(S(=O)(=O)Nc2ccccc2N=Cc2ccc([N+](=O)[O-])cc2[N+](=O)[O-])cc1
inactive: dose: 75.0 mg/kg/injection, schedule: Q01DX001 (ip), vehicle: carboxymethylcellulose (CMC) 97 % of control | dose: 150.0 mg/kg/injection, schedule: Q01DX001 (ip), vehicle: carboxymethylcellulose (CMC) 104 % of control | dose: 300.0 mg/kg/injection, schedule: Q01DX001 (ip), vehicle: carboxymethylcellulose (CMC) 92 % of control
